{"source": "paper PMC6268373", "about": "“Systematic Study of the Physicochemical Properties of a Homologous Series of Aminobisphosphonates” (Molecules, 2012)", "key": {"[1]": {"test": "Protonation constants by (traditional) potentiometric titration (TPT), SUPERQUAD", "conditions": "0.1 M NaNO3, 25 °C; for pKa: aqueous 0.1 M NaNO3, log K, TPT", "text": "Results were obtained from […] as overall stability constants (log β values); following the chosen zero level H2L^2−. This zero level H2L^2− was chosen in the calculations to avoid any accumulation of errors of protonation constants at different pH ranges. The log β results for reactions (4) and (5) obtained in the final refinements are listed in Table S3 (see Supporting Information) with error limits (±3σ), number of points/number of titrations and χ^2/Σ statistics.\nThe details of the experiments using (traditional) potentiometric titration are presented in the Supporting Information. The results of the determination by Sirius instrument are shown in the Supporting Information. Potentiometric titrations of the compounds were performed with the PCA200 apparatus (Sirius Analytical Instruments Ltd, Forest Row, East Sussex, UK).\nTable S2. The effect of pH on aqueous solubility (mg/L) of aminoalkylbis(phosphonates) […]\nSolubility (g/L) of Compound\nDetermination of the Protonation Constants Using (traditional) Potentiometric Titration. Reagents:\nAqueous 0.1 M NaOH was prepared from Titrisol ampoules (Merck) and 0.1 M HNO3 from Convol ampoules (BDH). The background solution was prepared by dissolving NaNO3 in deionised water.\nThe NaNO3 and NaCl used in reference electrode were p.a. grade (Merck). The water used in the dilutions and titration solutions was purified with Milli-RO and Milli-Q water purification systems […]\nPotentiometric measurements: The protonation equilibria was studied in aqueous 0.1 M NaNO3 at 25.0 ± 0.1 °C through a series of potentiometric EMF titrations carried out with a Schott-Geräte GmbH […]\nThe cell arrangement for the measurement of the hydrogen ion concentration [H+] was as follows:\n−RE […] equilibrium solution […] GE+ (1) where GE denotes a glass electrode (Schott N2680), and RE is Hg, Hg2Cl2 […] 0.01 M NaCl, 0.09 M NaNO3. Expression (2) is valid assuming that the activity coefficients are constant.\nThe cell parameter E0 and the liquid junction coefficient jH, valid in acidic solutions, were determined for each titration by adding a known amount of HNO3 to the background electrolyte. The value of the liquid junction coefficient jOH, valid in basic solutions, was determined periodically. Only stable EMF readings were used in the calculations.\nDuring the measurements of the protonation equilibria, aqueous 0.1 M NaOH or 0.1 M HNO3 was […]\nFour to eight independent titrations were carried out for each ligand. The number of data points used in […]\nData treatment: Protonation and deprotonation of the ligands were controlled by addition of HNO3 or NaOH. The curves of ZH versus pH were drawn to visualize the experimental data sets. ZH describes the average number of H+ ions added or liberated per mole of ligand and is given by the relationship […]\nwhere CH denotes the total concentration of protons calculated over the zero level H2L2−.\nIn the evaluation of the equilibrium constants, the following two-component equilibria were utilized:\nH2L2− ⇋ H2-xL(2+x)– + xH+ , x = 1–2; β–x (4) xH+ + H2L2− ⇋ Hx+2Lx–2, x = 1–3; βx (5)\nMathematical analysis of the systems involves a search for protonation models and equilibrium constants that best describe the experimental data. The calculations were carried out with the computer […]\n1200). The sample standard deviation Σ and the χ2 statistics used as criteria in the selection of the models were those provided by the program. As a means to improve the confidence level, the error limits for log β values determined in this study are reported as three times the standard deviation estimated by the program.\nFigure S2. ZH vs. pH for protonation of compounds (a) 1; (b) 2; (c) 3; (d) 4 and (e) 5."}, "[2]": {"test": "Thermal analysis (TG/DTA and TGA 7)", "assay_type": "physicochemical", "conditions": "for Td: 5 °C/min; for Temp. range of 1st cleavage: lower limit taken at 0.5 wt-%", "procedure": "Thermal decomposition paths with evaluation of crystal water content were obtained parallel with two instruments; Perkin Elmer STA 6000 thermogravimetric TG/DTA and Perkin Elmer TGA 7 analyzers (Perkin Elmer, Massachusetts, USA). Measurements were carried out in an open platinum crucible (the higher 5 mm crucible was used in TG/DTA and a shallower 2 mm crucible in TGA 7) under air atmosphere (flow rate of 45 mL/min) with a heating rate of 5 °C/min over the temperature range of 25−700 °C. The temperature calibration of STA 6000 was made using melting points of indium (156.60 °C) and zinc (419.5 °C) standards. For TGA 7 magnetic Curie-point calibration technique (Alumel, Ni, Perkalloy, Fe) was used. The weight balance of both instruments was calibrated by measuring a standard weight of 50 mg at room temperature. The sample weights used in the measurements were about 4–8 mg, and for each bisphosphonate, it was attempted to keep the same on both instruments. The melting/dehydration/decomposition behavior of the compounds was also visually monitored using a Stuart Scientific SMP3 melting point apparatus."}, "[3]": {"conditions": "cited from earlier work; for logK, pKa3: H2L2− + H+ ⇋ H3L−; for logK, pKa2: H3L− + H+ ⇋ H4L; for logK, pKa1: H4L + H+ ⇋ H5L+; for logK, pKa4: HL3− + H+ ⇋ H2L2−; for logK, pKa5: L4− + H+ ⇋ HL3−"}, "[4]": {"test": "pKa determination with Sirius instrument (PCA200)"}, "[5]": {"test": "Aqueous solubility of saturated solution at 21 °C (phosphorus determination by molybdenum blue spectrophotometry)", "description": "A Jasco V-530 UV/Vis spectrophotometer was used for phosphorus determination at 880 nm wavelength. Filtered liquid samples were diluted to the appropriate volume with Milli-Q water and were digested with the persulphate oxidation technique in acidic medium at elevated temperature to convert aminobisphosponates to orthophosphate. In an acidic medium, ammonium molybdate and antimony potassium tartrate react with orthophosphate to form a phosphomolybdic acid that is reduced to intensively colored molybdenum blue by ascorbic acid [30].\nThe mixture containing an excess of the studied compound was first agitated for predetermined time with magnetic stirrer and before taking the sample mixture was allowed to stand for 24 h without stirring. The sample (about 5 mL) was taken from liquid above the solids, pH was measured and the sample was filtered through 0.2 µm membrane filter to remove any possible insoluble particles. The phosphorus concentration in the filtered sample solution was determined by using the spectrophotometric method described above."}, "[6]": {"conditions": "overall protonation, zero level H2L2−"}}, "note": "Where two headings read alike, the source gives them in different places.", "data": [{"smiles": "NCCC(O)(P(=O)(O)O)P(=O)(O)O", "note": "[Compound 1, (3-Amino-1-hydroxypropylidene)bisphosphonic acid]", "values": [{"measurement": "pKa", "setting": "[1]; pKa1 (H4L + H+ ⇋ H5L+), approximate values", "value": 1.06}, {"measurement": "pKa", "setting": "[1]; pKa2 (H3L− + H+ ⇋ H4L)", "value": 1.7}, {"measurement": "pKa", "setting": "[1]; pKa3 (H2L2− + H+ ⇋ H3L−)", "value": 5.9}, {"measurement": "pKa", "setting": "[1]; pKa4 (HL3− + H+ ⇋ H2L2−)", "value": 10}, {"measurement": "pKa", "setting": "[1]; pKa5 (L4− + H+ ⇋ HL3−)", "value": 12.9}, {"measurement": "logβx ± 3σ, x = 1 (H3L−)", "setting": "[1]; [6]", "value": "5.90 ± 0.02"}, {"measurement": "logβx ± 3σ, x = 2 (H4L)", "setting": "[1]; [6]", "value": "7.60 ± 0.05"}, {"measurement": "logβx ± 3σ, x = 3 (H5L+)", "setting": "[1]; [6]", "value": "8.66 ± 0.30"}, {"measurement": "logβx ± 3σ, x = −1 (HL3−)", "setting": "[1]; [6]", "value": "−10.04 ± 0.03"}, {"measurement": "logβx ± 3σ, x = −2 (L4−)", "setting": "[1]; [6]", "value": "−22.90 ± 0.23"}, {"measurement": "Onset temperature of first cleavage", "setting": "[2]; TG/DTA, higher crucible", "value": 149, "unit": "°C"}, {"measurement": "Td", "setting": "[2]; TG/DTA, higher crucible, air", "value": 149, "unit": "°C"}, {"measurement": "Temp. range of 1st cleavage", "setting": "[2]; TG/DTA, higher crucible", "value": "134–199 °C"}, {"measurement": "Onset temperature of first cleavage", "setting": "[2]; TGA 7, shallow crucible", "value": 155, "unit": "°C"}, {"measurement": "Td", "setting": "[2]; TGA 7, shallow crucible, air", "value": 155, "unit": "°C"}, {"measurement": "Temp. range of 1st cleavage", "setting": "[2]; TGA 7, shallow crucible", "value": "102–203 °C"}, {"measurement": "Td (decomposition onset)", "setting": "[2]; average from both instruments, air, heating rate 5 °C/min", "value": 152, "unit": "°C"}, {"measurement": "temperature of first decomposition step (cleavage of amino group / degradation)", "setting": "[2]; thermogravimetry, air", "value": "100–200 °C"}, {"measurement": "logK, pKa3", "setting": "[3]; first Ref.18 column", "value": 6.01}, {"measurement": "logK, pKa3", "setting": "[3]; ref 4", "value": 5.86}, {"measurement": "logK, pKa3", "setting": "[3]; ref 13", "value": 5.83}, {"measurement": "logK, pKa3", "setting": "[3]; ref 14", "value": 5.85}, {"measurement": "logK, pKa3", "setting": "[3]; ref 15", "value": 6.01}, {"measurement": "logK, pKa3", "setting": "[3]; ref 17", "value": 6.04}, {"measurement": "logK, pKa3", "setting": "[3]; second Ref.18 column", "value": 5.39}, {"measurement": "logK, pKa2", "setting": "[3]; ref 4", "value": 2.04}, {"measurement": "logK, pKa2", "setting": "[3]; ref 13", "value": 2.55}, {"measurement": "logK, pKa2", "setting": "[3]; ref 14", "value": 1.80}, {"measurement": "logK, pKa2", "setting": "[3]; ref 15", "value": 2.56}, {"measurement": "logK, pKa2", "setting": "[3]; ref 17", "value": 1.93}, {"measurement": "logK, pKa1", "setting": "[3]; ref 14", "value": "<1.2"}, {"measurement": "logK, pKa1", "setting": "[3]; ref 17", "value": 1.24}, {"measurement": "logK, pKa4", "setting": "[3]; first Ref.18 column", "value": 9.97}, {"measurement": "logK, pKa4", "setting": "[3]; ref 4", "value": 9.90}, {"measurement": "logK, pKa4", "setting": "[3]; ref 13", "value": 9.9}, {"measurement": "logK, pKa4", "setting": "[3]; ref 14", "value": 10.30}, {"measurement": "logK, pKa4", "setting": "[3]; ref 15", "value": 9.80}, {"measurement": "logK, pKa4", "setting": "[3]; ref 17", "value": 10.18}, {"measurement": "logK, pKa4", "setting": "[3]; second Ref.18 column", "value": 9.46}, {"measurement": "logK, pKa5", "setting": "[3]; first Ref.18 column", "value": 10.74}, {"measurement": "logK, pKa5", "setting": "[3]; ref 4", "value": 11.02}, {"measurement": "logK, pKa5", "setting": "[3]; ref 13", "value": 10.8}, {"measurement": "logK, pKa5", "setting": "[3]; ref 14", "value": 13.06}, {"measurement": "logK, pKa5", "setting": "[3]; ref 15", "value": 10.95}, {"measurement": "logK, pKa5", "setting": "[3]; ref 17", "value": 12.14}, {"measurement": "logK, pKa5", "setting": "[3]; second Ref.18 column", "value": 10.40}, {"measurement": "pKa 2 (Sirius)", "setting": "[4]", "value": 2.32}, {"measurement": "pKa 3 (Sirius)", "setting": "[4]", "value": 5.93}, {"measurement": "pKa 4 (Sirius)", "setting": "[4]", "value": 10.05}, {"measurement": "pKa 5 (Sirius)", "setting": "[4]", "value": 12.54}, {"measurement": "solubility at 30 min", "setting": "[5]; Milli-Q water, unbuffered, 21 °C, water, thermodynamic from solid", "value": 10.9, "unit": "mg/mL"}, {"measurement": "pH of saturated solution", "setting": "[5]; saturated aqueous solution, 21 °C, agitation time 30 min", "value": 4.62}, {"measurement": "water solubility (in words)", "setting": "[5]; water", "value": "almost freely soluble"}]}]}
